{
  "source": "patent US4598065A",
  "about": "“Use of peptides as medicaments and certain novel peptides” (Novo Industri A/S, priority 1980, dated 1986)",
  "key": {"NMRI mice": {"test_system": "NMRI mice", "assay": "Acute toxicity study in NMRI mice", "type": "in vivo", "details": "10 mg i.v. bolus, NMRI mice 20 g (500 mg/kg body weight)"}, "rat free fat cells": {"test_system": "rat free fat cells", "assay": "Lipolytic effect on rat free fat cells in vitro", "type": "cell-based"}, "rats": {"test_system": "rats", "assay": "Metabolic effects (hyperglycemia, insulin release) after administration to rats in vivo", "parameters": "species or system rat"}, "[1]": {"test_system": "electrically stimulated guinea pig ileum", "assay": "Contractions of the electrically stimulated guinea pig ileum in vitro", "type": "cell-based", "source_text": "10^-5 M glucagon caused 83±4% (X±sd, N=3) ihibition compared to 78±5% for glucagon1-21. The effects of 10^-6 M was 50±3% and 52±5%, respectively, and of 10^-7 M: 27±3% for either peptide."}, "adenylate cyclase": {"test_system": "adenylate cyclase", "details": "in vitro", "source_text": "The metabolic effects of glucagon1-21, glucagon1-26 and des(22-26)-glucagon, as exemplified by their lipolytic effect on rat free fat cells in vitro and their effect on the activation of the adenylate cyclase in vitro, are negligible compared with the metabolic effects of glucagon."}, "[2]": {"test_system": "isolated perfused rat pancreas", "assay": "Insulin release from the isolated perfused rat pancreas", "type": "cell-based", "details": "infused to the same concentration as glucagon"}, "[3]": {"test_system": "pentagastrin stimulated gastric acid secretion in gastric fistula cats", "assay": "Pentagastrin stimulated gastric acid secretion in cats with chronic gastric fistulas", "type": "in vivo, cat", "experimental": "1 μg/kg pentagastrin subcutaneously administered to gastric fistula cats caused an increase in gastic acid secretion of 856±71 μEq (Eq designates equivalent) acid (X±S.E.M., N=18). When 2 μg/kg glucagon1-21 was administered subcutaneously at the same time as 1 μg/kg pentagastrin the increase in acid output was only 417±104 μEq acid (N=6).\nIn a male cat weighing approx. 4.5 kg equipped with a cronic gastric fistula the gastric acid secretion was stimulated with 4.5 μg pentagastrin (Peptavlon®) in a volume of 1 ml 0.9% saline containing 0.1% human serum albumin subcutaneously in the neck. In 8 experiments 1 ml placebo (0.9% saline with 0.1% human serum albumin) was administered subcutaneously through another cannula in the neck at the same time as the administration of pentagastrin. In 2 experiments 9 μg of glucagon1-21 in 1 ml of the above solution was administered simultaneously with the administration of pentagastrin. Gastric acid secretion was collected over periods of 15 minutes and titrated with 0.01N NaOH. The increase in acid secretion after the administration of pentagastrin was calculated as μEq acid excreted over 11/2 hrs. after the administration subtracting the basal acid secretion before administration of pentagastrin. After administration of 4.5 μg pentagastrin plus placebo the increase in gastric acid secretion was 729± 89 μEq acid (X±S.E.M., N=8). […]"}, "[4]": {"test_system": "rabbit gall bladder preparation", "assay": "Relaxation of submaximally contracted rabbit gall bladder preparation in vitro", "type": "cell-based"}, "gall flow in rats": {"test_system": "gall flow in rats", "assay": "Gall flow in rats in vivo", "parameters": "species or system rat"}, "[5]": {"test_system": "intestinal motility in rabbits", "assay": "Intestinal motility in anaesthetized rabbits in vivo (spasmolytic effect, balloon in jejunum)", "parameters": "species or system rabbit", "details": "for spasmolytic effect: Experiment B, rabbit 2.32 kg", "experimental": "One male rabbit weighing 2.56 kg was anaesthetized with nembutal after an overnight fast. The position of the balloon used for measurement of intestinal motility was 1 meter from pylorus in the jejunum. The motility was registered before and after intraveneous administration of 77 μg glucagon1-21 in 1 ml 0.9% saline containing 0.1% human serum albumin. […] The onset of effect was 1 minute after the administration and the duration of effect was 11 minutes.\nA male rabbit weighing 2.32 kg was treated as described in Experiment A with the following dosages: […]"}, "bile flow in rabbits": {"test_system": "bile flow in rabbits", "assay": "Bile flow in rabbits with catheters in the bile duct", "type": "in vivo, rabbit", "details": "for Amount of bile: 200 μg s.c. given after 45 minutes", "experimental": "One rex rabbit weighing 2.0 kg was equipped with a catheter in the bile duct during nembutal anaesthesia on the day before the experiment. On the day of the experiment the bile was collected for periods of 15 minutes.\nAfter 45 minutes 200 μg glucagon was administered subcutaneously in 1 ml of 0.9% saline containing 0.1% human serum albumin. After 120 minutes 154 μg glucagon1-21 was administered subcutaneously in 1 ml of the above solution. After 195 minutes the placebo (vide Experiment C) was administered."}, "[6]": {"details": "i.v. bolus, 100 to 200 μg glucagon or 77 to 154 μg glucagon1-21, anesthetized rabbits 2.5 to 3.0 kg"}},
  "data": [
    {"compound": "CC(C)C[C@H](NC(=O)[C@H](Cc1ccc(O)cc1)NC(=O)[C@H](CCCCN)NC(=O)[C@H](CO)NC(=O)[C@H](Cc1ccc(O)cc1)NC(=O)[C@H](CC(=O)O)NC(=O)[C@H](CO)NC(=O)[C@@H](NC(=O)[C@H](Cc1ccccc1)NC(=O)[C@@H](NC(=O)CNC(=O)[C@H](CCC(N)=O)NC(=O)[C@H](CO)NC(=O)[C@@H](N)Cc1c[nH]cn1)[C@@H](C)O)[C@@H](C)O)C(=O)N[C@@H](CC(=O)O)C(=O)N[C@@H](CO)C(=O)N[C@@H](CCCNC(=N)N)C(=O)N[C@@H](CCCNC(=N)N)C(=O)N[C@@H](C)C(=O)N[C@@H](CCC(N)=O)C(=O)N[C@@H](CC(=O)O)C(=O)O", "note": "[glucagon1-21, glucagon-(1-21)-heneicosapeptide]", "values": [
      {"measurement": "deaths", "setting": "NMRI mice", "result": "No deaths occurred"}
    ]},
    {"compound": "CC(C)C[C@H](NC(=O)[C@H](Cc1c[nH]c2ccccc12)NC(=O)[C@H](CCC(N)=O)NC(=O)[C@@H](NC(=O)[C@H](Cc1ccccc1)NC(=O)[C@H](CC(=O)O)NC(=O)[C@H](CCC(N)=O)NC(=O)[C@H](C)NC(=O)[C@H](CCCNC(=N)N)NC(=O)[C@H](CCCNC(=N)N)NC(=O)[C@H](CO)NC(=O)[C@H](CC(=O)O)NC(=O)[C@H](CC(C)C)NC(=O)[C@H](Cc1ccc(O)cc1)NC(=O)[C@H](CCCCN)NC(=O)[C@H](CO)NC(=O)[C@H](Cc1ccc(O)cc1)NC(=O)[C@H](CC(=O)O)NC(=O)[C@H](CO)NC(=O)[C@@H](NC(=O)[C@H](Cc1ccccc1)NC(=O)[C@@H](NC(=O)CNC(=O)[C@H](CCC(N)=O)NC(=O)[C@H](CO)NC(=O)[C@@H](N)Cc1c[nH]cn1)[C@@H](C)O)[C@@H](C)O)C(C)C)C(=O)O", "note": "[glucagon1-26, glucagon-(1-26)-hexacosapeptide]", "values": [
      {"measurement": "lipolytic effect (metabolic effect) compared with glucagon", "setting": "rat free fat cells", "result": "negligible"},
      {"measurement": "metabolic effects after administration in vivo", "setting": "rats", "result": "No metabolic effects"},
      {"measurement": "inhibitory effect on the amplitude of the contractions, potency compared with glucagon", "setting": "[1]; electrically stimulated guinea pig ileum in vitro", "result": "almost the same potency as glucagon"},
      {"measurement": "effect on the activation of the adenylate cyclase (metabolic effect) compared with glucagon", "setting": "adenylate cyclase", "result": "negligible"}
    ]},
    {"compound": "glucagon", "values": [
      {"measurement": "insulin release", "setting": "[2]", "result": "releases insulin"},
      {"measurement": "effect on pentagastrin stimulated gastric acid secretion", "setting": "[3]", "result": "inhibit pentagastrin stimulated gastric acid secretion"},
      {"measurement": "inhibition of contraction amplitude", "setting": "[1]; 10^-5 M, X±sd, N=3", "result": "83±4", "unit": "%"},
      {"measurement": "inhibition of contraction amplitude", "setting": "[1]; 10^-6 M", "result": "50±3", "unit": "%"},
      {"measurement": "inhibition of contraction amplitude", "setting": "[1]; 10^-7 M", "result": "27±3", "unit": "%"},
      {"measurement": "relaxation of gall bladder strip", "setting": "[4]; 10^-6 M, strip contracted with 0.1 μg/ml cholecystochinin octapeptide", "result": 39, "unit": "%"},
      {"measurement": "ED50 (relaxation of gall bladder strip)", "setting": "[4]; strip contracted with 0.1 μg/ml cholecystochinin octapeptide", "result": 2700, "unit": "nM"},
      {"measurement": "relaxing effect on gall bladder preparation, relative potency", "setting": "[4]; submaximally contracted rabbit gall bladder preparation in vitro", "result": "almost equipotent"},
      {"measurement": "effect on gall flow", "setting": "gall flow in rats", "result": "increase in gall flow"},
      {"measurement": "spasmolytic effect", "setting": "[5]; 200 μg i.v.", "result": "no detectable effect"},
      {"measurement": "spasmolytic effect", "setting": "[5]; 400 μg", "result": "distinct effect"},
      {"measurement": "duration of inhibition of intestinal motility", "setting": "[5]; [6]", "result": "about ten"},
      {"measurement": "onset of inhibition of intestinal motility after administration", "setting": "[5]; [6]", "result": "one"},
      {"measurement": "gall flow immediately after the administration", "setting": "bile flow in rabbits; rabbits with catheters in the bile duct", "result": "decrease in gall flow"},
      {"measurement": "subsequent bile flow", "setting": "bile flow in rabbits; rabbits with catheters in the bile duct, after the initial decrease", "result": "increase in bile flow to quantities higher than before the administration"},
      {"measurement": "Amount of bile", "setting": "bile flow in rabbits; sampling period 45-60 minutes, one rex rabbit 2.0 kg", "result": 0.20, "unit": "mL"},
      {"measurement": "Amount of bile", "setting": "bile flow in rabbits; sampling period 60-75 minutes", "result": 0.25, "unit": "mL"},
      {"measurement": "Amount of bile", "setting": "bile flow in rabbits; sampling period 75-90 minutes", "result": 3.30, "unit": "mL"},
      {"measurement": "Amount of bile", "setting": "bile flow in rabbits; sampling period 90-105 minutes", "result": 2.80, "unit": "mL"},
      {"measurement": "Amount of bile", "setting": "bile flow in rabbits; sampling period 105-120 minutes", "result": 2.00, "unit": "mL"}
    ]}
  ]
}
